Source: PubChem BioAssay (NCI)
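Five concentrations, 48 hours, 96-well plates. At the GI50, growth is halved. TGI: concentration producing complete growth inhibition.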

What was measured:
Test in all cases: DTP human tumour cell line panel, 48 h
NCI-H23 lung = tested on: NCI-H23 lung
HCT-116 colon = tested on: HCT-116 colon
LOX IMVI melanoma = tested on: LOX IMVI melanoma
HS 578T breast = tested on: HS 578T breast
EKVX NSCLC = tested on: EKVX NSCLC
SF-539 CNS = tested on: SF-539 CNS
SNB-75 CNS = tested on: SNB-75 CNS
UACC-62 melanoma = tested on: UACC-62 melanoma
RPMI-8226 leukemia = tested on: RPMI-8226 leukemia
SF-295 CNS = tested on: SF-295 CNS

SMILES	GI50 (NCI-H23 lung) [µM]	TGI (NCI-H23 lung) [µM]	GI50 (HCT-116 colon) [µM]	TGI (HCT-116 colon) [µM]	GI50 (LOX IMVI melanoma) [µM]	TGI (LOX IMVI melanoma) [µM]	GI50 (HS 578T breast) [µM]	TGI (HS 578T breast) [µM]	GI50 (EKVX NSCLC) [µM]	TGI (EKVX NSCLC) [µM]	GI50 (SF-539 CNS) [µM]	TGI (SF-539 CNS) [µM]	GI50 (SNB-75 CNS) [µM]	TGI (SNB-75 CNS) [µM]	GI50 (UACC-62 melanoma) [µM]	TGI (UACC-62 melanoma) [µM]	GI50 (RPMI-8226 leukemia) [µM]	TGI (RPMI-8226 leukemia) [µM]	GI50 (SF-295 CNS) [µM]	TGI (SF-295 CNS) [µM]
CCCc1cc(=O)oc2c(C(=O)CC(C)C)c(O)c(CC=C(C)C)c(O)c12	4.05	45.8	8.59	> 50	12.9	> 50	13.4	> 50	9.22	> 50	9.8	44.2	10.7	41.8	1.88	12.1	2.86	22.1	7.81	31.3
CN(C)CC(C(=O)c1ccccc1)c1ccccc1 (stereo unspecified)	2.95	12.7	1.03	2.2	0.765	2.33	2.19	12.8	10.2	27.1	2.25	5.04	3.54	14.4	2.05	7	2.08	7.49	4.52	18.2
CCOP(=O)(CCP(=O)(OCC)OCC)OCC.C[CH2][Sn]([Cl])([Cl])[CH2]C	19.9	49	> 67.3	> 100	22	47.9	> 100	> 100	> 100	> 100	34.9	52.1	26.4	69.3	34	55	22.7	67.2	> 81.8	> 100
Nc1ccc2c(c1)C(=O)c1ccc(F)cc1-2		> 100		> 100		> 100		> 100		> 100		> 100		> 100		> 100		> 100		> 100
CSC1=Nc2c(c(C)c(-c3ccccc3)n2COC(CO)CO)C2=NC(=O)C(C)N12 (stereo unspecified)	> 100	> 100	> 100	> 100	> 100	> 100	> 100	> 100	> 100	> 100	> 100	> 100	48.5	> 100	70.1	> 100	> 100	> 100	> 100	> 100
COc1cc(/C=C/C(=O)C(=Cc2ccc(F)c(F)c2)C(=O)/C=C/c2ccc(O)c(OC)c2)ccc1O	2.8	8.56	1.79	4.01	1.95	4.48	3.25	15.4	4.61	18.3	3.26	13.6	1.91	5.97	1.93	5.14	2.44	8.29	3.63	25.1
Clc1ccc(-c2nc3c(-c4ccc(Cl)cc4)nc(-c4ccccc4)cn3c2-c2ccc(Cl)cc2)cc1	> 50	> 50	> 50	> 50	> 50	> 50	10.8	> 50	> 50	> 50	21	> 50	6.56	25.7	26	> 50	> 50	> 50	12	> 50
COc1cc(CNC(=O)/C=C/C=C/c2ccc3c(c2)OCO3)ccc1OCc1cn(-c2ccc(Cl)c(Cl)c2)nn1	0.588	2.34	1.22	2.84	1.78	3.96	2.53	8.56	2.95	13.4	3.26	12.3	1.94	5.99	1.26	2.65	2.3	8.36	1.85	4.19
CC/C(=N\Nc1nc2ccccc2n1C)c1ccccn1	0.0452	17.6	< 0.01	11.8	0.118	5.32	0.923	12.7	0.0369	7.47	0.182	1.62	0.478	8.84	0.142	0.839	0.033	6.29	0.17	1.28
Cc1ccc(/C=C(\C#N)n2nnc3cc(Cl)c(Cl)cc32)cc1	3.36	> 100	1.54	3	1.81	3.65	2.83	> 100	3.48	> 100	2.53	6.6	1.57	9.74			1.7	4.91		
O=C(CCCn1c2c(sc3ncccc32)c(=O)n2nnc(-c3ccccc3)c12)NCCc1cnc[nH]1	14.5	32.2	0.378	10.1	12.4	26.6	11.3	31.5	15.2	44.5	0.316	14.9	15.1	28.9	16	30.5	5.15	35.7	1.75	16.3
O=C1Cc2cc(CCn3ccnc3)c(Cl)cc2N1	40.8	> 100	13.1	> 100	85.3	> 100	0.873	9.92	0.613	> 100	60	> 100	21.6	> 100	7.68	> 100	46.2	> 100	7.87	> 100
